Experimental findings from patent US12721800B2, “Phosphonates and N-halamines compositions for tartar removal” (O.Y.M. INNOVATION LTD., priority 2021, dated 2026) are described below.

Test [1] in a line: Effect of SUTP, poly(StBP) NPs and γ-Glu-BP on human teeth (incubation, brushing, overnight re-incubation). Conditions: for precipitate of tartar during incubation: 1 mg/ml aqueous solution, 4 ml, pH=4, RT, after 15 min of incubation; for cleaning of teeth from tartar (photographs): 1 mg/ml, pH=4, RT 1 hr, brushing, new solution overnight, washed with DDW. On the procedure:
The effect of SUTP (Example 1), poly(StBP) NPs (Example 4), and γ-Glu-BP (Example 2) on human teeth was evaluated as followed:
Teeth were incubated in three separate aqueous solutions of: SUTP, poly(StBP) NPs, and γ-Glu-BP (1 mg/ml, 4 ml, pH=4) at RT for 1 hr. […] The teeth were then brushed by a toothbrush to remove the remain tartar layer on the teeth and were incubated in new solutions of SUTP, poly(StBP) NPs, and γ-Glu-BP overnight. Then, the teeth were washed by DDW and were photographed.

The nature of test [2]: Comparison of succinyl tetraphosphonate and two industrial pyrophosphates on human teeth having mature tartar. Conditions: for mature tartar removal (images before and after treatment): 1 mg/ml in PBS, pH=7, 5 ml, shaken 10 min, then brushed 2 min. On the procedure: The effect of succinyl tetraphosphonate and two types of industrial pyrophosphates on human teeth having mature tartar as were evaluated as followed:
Human teeth were incubated and shaken in 5 ml solution of PBS with SUTP ((a) see structure below), sodium pyrophosphate tetrabasic ((b) see structure below) and sodium pyrophosphate dibasic ((c) see structure below) (1 mg/ml, pH=7) for 10 min. Then, the teeth were brushed by a toothbrush for 2 min. Images were captured before and after treatment FIG. 6 (with SUTP), FIG. 7 (with sodium pyrophosphate tetrabasic), and FIG. 8 (with sodium pyrophosphate dibasic).

The nature of test [3]: Effect of halamine NPs and SUTP on mature tartar removal on human teeth (10 min stirring, then brushing). On the procedure:
The effect of halamines nanoparticles (as presented in Table 1) and SUTP compounds on mature tartar removal on human teeth were studied. 5 mL of each aqueous suspension were added to a 20 mL vial, and a tooth with tartar was added to each vial. Then, the solutions were stirred for 10 min at room temperature. After 10 minutes the teeth were brushed using a soft toothbrush and a photo of the tooth were taken.

For the compound `NC(CCC(O)(P(=O)(O)O)P(=O)(O)O)C(=O)O` (centres unmarked) [γ-Glu-BP], in test [1], the “precipitate of tartar during incubation” value is given as “a new precipitate of tartar was observed spontaneously” and the “cleaning of teeth from tartar (photographs)” value was “cleaning of dirty teeth from tartar”.
Regarding `O=P([O-])([O-])OP(=O)([O-])[O-].[Na+].[Na+].[Na+].[Na+]` [Sodium pyrophosphate tetrabasic, sodium pyrophosphate tetrabasic, reference compound], the “mature tartar removal (images before and after treatment)” value (“mature tartar removal” below) in test [2] is “did not remove the mature tartar”.
Consider `O=P([O-])(O)OP(=O)([O-])O.[Na+].[Na+]` [Sodium pyrophosphate dibasic, sodium pyrophosphate dibasic, reference compound], for which the “mature tartar removal” value in test [2] is listed as “did not remove the mature tartar”.
On to `O=P(O)(O)C(O)(CCC(O)(P(=O)(O)O)P(=O)(O)O)P(=O)(O)O` [SUTP, Succinyl tetra phosphonate], for which, in test [1], the “precipitate of tartar during incubation” value is reported as “a new precipitate of tartar was observed spontaneously”. Besides, the “cleaning of teeth from tartar (photographs)” value in test [1] was “cleaning of dirty teeth from tartar”. Further, the “tartar removal from tooth” value in test [3] (1 mg/mL, pH 3-4, 10 min stirring and brushing) was “partially clean”; in test [3] (1 mg/mL, pH 6-7, 10 min stirring and brushing), “partially clean”; in test [3] (10 mg/mL, pH 3-4, 10 min stirring and brushing) it was “completely clean”. Besides, the “mature tartar removal” value in test [2] is recorded as “a significant mature tartar was removed”. For the same compound, in test [2] (1 mg/ml, solution captured after teeth brushing), the “cloudiness of the solution after the teeth brushing (tartar removed from the teeth)” value was “significantly cloudier than the others”.
